Experimental data published in patent publication US20080009448A1, “Peptide Derivative” (priority 2006, published 2008).
Where two headings read alike, the source gives them in different places.

Columns and labels:
[1] = test system: heat nociceptive stimulation; experiment: Anti-nociceptive activity test, tail-flick method; format: in vivo, mouse; conditions: for Oral ED50 / Subcutaneous ED50 / ED50 / activity-peak time after the oral administration / activity-peak time after the subcutaneous administration: mice; for Oral ED50 / Subcutaneous ED50 / ED50: at activity-peak time, parentheses = 95% confidence limit; for ED50: Mus musculus
Experimental: (1) Experimental animal, male ddy mice (Japan SLC), weighing the body weight in the range of 22 to 25 g, were used for the studies. The animals had been kept under constant conditions (room temperature 22±2° C., humidity 55±5%, 12 hours light-and-dark cycle having light time 9:00 to 21:00 and dark time 21:00 to 9:00) until used for an experiment. The animals were fed the mouse solid diet (F2, Funabashi farm. Funabashi, Japan) with unrestricted tap water intake.
SS8225-01, 02, 03 04, 05, 06, 07 and 08 as examples and SS8225-09, 10, 11 and 12 as comparison examples were used as the administered drugs. […] In addition only Liger solution was administered as an experimental control. The animals were left for 60 minutes in the plastic cage to become familiar to the environment prior to the test in which measured a latent time for each mouse before drug administration in accordance with a tail-flick method noted below. Heat was radiated to a part of each mouse tail which is 2 cm from the end of its tail. Each of heat radiation periods before beginning of tail-flick was measured as a false pain threshold. Mice which responded to the stimulation within 2.5 to 3.5 seconds were pre-selected for the test. Administration solution under one administration condition for one kind of drug was administered to one experimental animal group including 10 mice. After the body weight of each mouse was measured, each volume of the administration solution was adjusted to be 0.1 mL/10 g of mouse body weight and then the solution was administered. The administration methods were two methods of subcutaneous administration (s. c.) and oral administration (p. o.). On subcutaneous administration, the administration solution of 0.1 mL per 10 g of body weight (0.1 mL/10 g) was injected into the back of the mouse using 27 gauge needle. On oral administration, the administration solution of 0.1 mL per 10 g of body weight (0.1 mL/10 g) was administered using an oral sonde.
Heat was radiated to a part of each mouse's tail of respective experimental group, which is 2 cm from the end of its tail, at 15, 30 and 60 minutes after the drug administration according to the preset measurement interval and a latent time until respective mouse swung its tail was measured as a false pain threshold value. The maximum stimulation period (cut-off-time) was set as 10 seconds to minimize the damage to the stimulation part. The anti-nociceptive effect was evaluated quantitatively by calculating % MPE (% of maximum possible effect) according to the following formula. [formula] T1: A latent time until beginning of tail-flick before respective drug administration (seconds) T2: A latent time until beginning of tail-flick after respective drug administration (seconds) Tc: A maximum stimulation period (cut-off-time)
The graphs (FIG. 1, FIG. 3, FIG. 5, FIG. 7, FIG. 9, FIG. 11, FIG. 13, FIG. 15, FIG. 17, FIG. 19, FIG. 21, FIG. 23, FIG. 25, FIG. 27, FIG. 29, FIG. 31, FIG. 33 and FIG. 35) showing a time-course variation of % MPE were created, in which a vertical axis is an average value with a standard error (means ±S. E. M.) obtained by calculation of % MPE of respective animals of 10 mice every administration condition of respective drugs and a horizontal axis is a time after administration. After treating % MPE data of each animal of experimental groups with respective doses and % MPE data of each animal of the experimental group with a control Ringer's solution at the same measurement time every drugs using the two-way layout dispersion analysis (two-way ANOVA), the hazard-ratio of P<0.05 was decided to be a significant difference according to Bonferroni post-test.
A lasting time of anti-nociceptive activity of each drug in the present description is the lasting time of anti-nociceptive activity under the dose condition providing the longest lasting time.
ED50 is represented in the unit of mg/Kg.

male ddy mouse = experiment: Evaluation of acute toxicity; conditions: s.c.; for Number of mice died (out of five): within 72 to 96 hours
Experimental: Mice weighing in the range of 22 to 25 g, male ddy mouse, were employed. Number of mice out of five mice in each group that died within 72 to 96 hours recorded.

[2] = test system: MSU induced knee osteoarthritis pain; experiment: MSU induced knee osteoarthritis pain model, hind leg paw-pressure ratio; format: in vivo, rat; parameters: key to AUC of time-course variation of anti-nociceptive activity: AUC of the time course of anti-nociceptive activity as % MPE; conditions: rat, MSU knee model; for ED50: range in parentheses
Experimental: Experimental animal, male SD type rats, weighing the body weight in the range of 170 to 190 g, were used for the studies. The animals had been kept under constant conditions (room temperature 23±1° C., humidity 52±2%, 12 hours light-and-dark cycle having light time 7:00 to 19:00 and dark time 19:00 to 7:00) until used for an experiment. The animals were fed the mouse solid diet (F2, Funabashi farm. Funabashi, Japan) with unrestricted tap water intake, and kept in captivity for at least more than two days in a laboratory.
Any test drugs were dissolved in Ringer's solution (Fuso Yakuhin) to be used.
MSU was suspended with the suspension solution (10% of polyoxyethylene sorbitan mono-oleate (Tween 80: Nakarai Tesk) as 0.1 g per 1 mL. The animal was anesthetized with diethyl ether and after the surface of its left hind leg knee joint was wiped with 70% ethanol cotton, a porous administration of the suspension solution above noted was conducted into the cavity of let hind leg knee joint.
Pressures to both hind leg paw were measured using a paw-pressure measurement apparatus and recorded. Measurement time at respective times was 4.5 seconds. Calculated paw-pressure ratio (ppr) is a value calculated by dividing the pressure on the left hind leg by the pressure on the right hind leg according to the measured pressures on both hind legs.
The anti-nociceptive effect was evaluated quantitatively by calculating % MPE (% of maximum possible effect) according to the following formula. [formula]
In the formula, ppr 0 and ppr 1 are respective paw-pressure ratios on both hind legs before and after administration. ED50 value of anti-nociceptive activity was calculated using GraphPad Prism data-graph processing software version 4.0, San Diego, Calif., USA.
The strength of anti-nociceptive activity was represented by calculating the time-course variation of anti-nociceptive activity AUC using GraphPad Prism noted above.
Paw-pressure was measured twice at 4 hours after administration to provide ppr by calculation and the average of those values was both hind leg paw-pressure ratio before the drug administration. After the measurement of both hind leg paw-pressure before the drug administration, 0.1 mL of Ringer's solution or a test drug in Ringer's solution per 100 g rat body weight was orally administered, and then a paw-pressure was measured once every unit time after the oral administration.
Statistical processing was conducted using GraphPad Prism. After the two-way layout dispersion analysis, the hazard-ratio of P<0.05 was decided to be a significant difference according to Bonferroni post-test. The hazard-ratios were distinguished into less than 5% (P<0.05) and less than 1% (P<0.01) and represented as “*” and “**” in the same manner conducted for the Tail-flick method.

[3] = s.c., doses of 0.5 mg/Kg and 0.25 mg/Kg

With “Iminoethyl-[Tyr]-[D-Met(O)]-[Phe]-[N-MeLys]-OH [SS8225-11]” the “Oral ED50” value ([1]; p.o.) was >10 mg/kg, the “Oral ED50” value ([1]; p.o., listed as Comparison Example 5) was “over 10 mg/Kg” and the “Subcutaneous ED50” value ([1]; s.c.) was >0.5 mg/kg. For the same molecule, the “Subcutaneous ED50” value ([1]; s.c., listed as Comparison Example 5) was “over 0.5 mg/Kg”.
For `CC(=N)N[C@@H](Cc1ccc(O)cc1)C(=O)N[C@H](CC[S+](C)[O-])C(=O)N[C@@H](Cc1ccccc1)C(=O)N(C)CCC(N)=O` (stereo partly drawn) [SS8225-04, Iminoethyl-[Tyr]-[D-Met(O)]-[Phe]-[N-MeβAla]-NH2], the “Lethality (%)” value (male ddy mouse; dosage 6.25 mg/Kg (125 times the ED50)) was 0%, the “Number of mice died (out of five)” value (male ddy mouse; dosage 6.25 mg/Kg) was 0 and the “Lethality (%)” value (male ddy mouse; dosage 25 mg/Kg (500 times the ED50)) was 0%. For the same molecule, the “Number of mice died (out of five)” value (male ddy mouse; dosage 25 mg/Kg) was 0, the “Lethality (%)” value (male ddy mouse; dosage 50 mg/Kg (1000 times the ED50)) was 20% and the “Number of mice died (out of five)” value (male ddy mouse; dosage 50 mg/Kg) was 1. The “Lethality (%)” value (male ddy mouse; dosage 100 mg/Kg (2000 times the ED50)) was 20%, the “Number of mice died (out of five)” value (male ddy mouse; dosage 100 mg/Kg) was 1 and the acute toxicity (male ddy mouse; mice) was “satisfactorily low”.
With `COc1ccc2c3c1O[C@H]1C(=O)CC[C@@]4(O)[C@@H](C2)N(C)CC[C@]314` [Oxycodone] the ED50 ([1]; po, p.o., read-out: Oral ED50) was 7.82 mg/kg, the ED50 ([1]; sc, s.c., read-out: Subcutaneous ED50) was 1.21 mg/kg and the “activity-peak time after the oral administration” value ([1]; p.o.) was 45 min. For the same molecule, the “activity-peak time after the subcutaneous administration” value ([1]; s.c.) was 30 min, the “lasting time of anti-nociceptive activity” value (“lasting time” for short) ([1]; p.o., dose of 20 mg/Kg) was 5 h and the “lasting time” value ([1]; s.c., dose of 1.75 mg/Kg) was 1.5 h. The “activity lasting-time, times longer than for morphine” value ([2]; oral) was 0.4 times, the activity peak ([2]; oral) was 60 min and the “AUC of time-course variation of anti-nociceptive activity” value (“AUC” for short) ([2]; oral 7.5 mg/kg) was 2525. For the same molecule, the “AUC” value ([2]; oral 15 mg/kg) was 6363, the “AUC” value ([2]; oral 30 mg/kg) was 10562 and the ED50 ([2]; oral, %MPE, read-out: ED50 value at activity peak) was 10.3 mg/kg. For the same molecule, the “anti-nociceptive activities, times stronger than for morphine” value ([2]; oral, from ED50 of AUCs) was “approximately 1.8 times”, the ED50 ([2]; oral, read-out: ED50 of AUCs) was 49.4 mg/kg and the “anti-nociceptive activity lasting-times, times longer than for morphine” value ([2]; oral, stated after ED50 at activity peak) was 3.6 times. The activity lasting-time ([2]; orally administered) was 120 min.
For “Iminoethyl-[DMT]-[D-Arg]-[Phe]-[N-MeLys]-OH [SS8225-12]”, the “Oral ED50” value ([1]; p.o.) was >10 mg/kg, the “Oral ED50” value ([1]; p.o., listed as Comparison Example 6) was “over 10 mg/Kg” and the “Subcutaneous ED50” value ([1]; s.c.) was >0.5 mg/kg. For the same molecule, the “Subcutaneous ED50” value ([1]; s.c., listed as Comparison Example 6) was “over 0.5 mg/Kg”.
With “Iminoethyl-[Tyr]-[D-Met(O)]-[Phe]-[N-MeLys]-NH2 [SS8225-06]” the “activity-peak time after the oral administration” value ([1]; p.o.) was 120 min, the “Oral ED50” value ([1]; p.o.) was 6.02 mg/kg and the “activity-peak time after the subcutaneous administration” value ([1]; s.c.) was 90 min. For the same molecule, the “Subcutaneous ED50” value ([1]; s.c.) was 0.18 mg/kg, the “lasting time” value ([1]; p.o., dose of 10 mg/Kg) was “not less than 17 hours” and the “lasting time” value ([1]; s.c., dose of 0.25 mg/Kg) was 5 h.
In the case of “Iminoethyl-[DMT]-[D-Arg]-[Phe]-[N-MeβAla]-NH2 [SS8225-01]”, the “Oral ED50” value ([1]; p.o.) was >10 mg/kg, the “activity-peak time after the subcutaneous administration” value ([1]; s.c.) was 90 min and the “Subcutaneous ED50” value ([1]; s.c.) was 0.12 mg/kg. For the same molecule, the “lasting time” value [1, 3] was “not less than 7 hours”.
With “Iminoethyl-[DMT]-[D-Met(O)]-[Phe]-[N-MeLys]-NH2 [SS8225-05]” the “Oral ED50” value ([1]; p.o.) was >10 mg/kg, the “activity-peak time after the subcutaneous administration” value ([1]; s.c.) was 120 min and the “Subcutaneous ED50” value ([1]; s.c.) was 0.10 mg/kg. For the same molecule, the “lasting time” value ([1]; s.c., dose of 0.25 mg/Kg) was 7 h.
For “[DMT]-[D-Met(O)]-[Phe]-[N-MeLys]-NH2 [SS8225-10]”, the “Oral ED50” value ([1]; p.o.) was >10 mg/kg, the “Oral ED50” value ([1]; p.o., listed as Comparison Example 4) was “over 10 mg/Kg” and the “activity-peak time after the subcutaneous administration” value ([1]; s.c.) was 90 min. The “Subcutaneous ED50” value ([1]; s.c.) was 0.28 mg/kg and the “lasting time” value ([1]; s.c., dose of 0.5 mg/Kg) was 6 h.
For “Iminoethyl-[Tyr]-[D-Arg]-[Phe]-[N-MeβAla]-NH2 [SS8225-02]”, the “activity-peak time after the oral administration” value ([1]; p.o.) was 240 min, the “Oral ED50” value ([1]; p.o.) was 4.0 mg/kg and the “activity-peak time after the subcutaneous administration” value ([1]; s.c.) was 90 min. For the same molecule, the “Subcutaneous ED50” value ([1]; s.c.) was 0.06 mg/kg, the “lasting time” value ([1]; p.o., dose of 10 mg/Kg) was 10 h and the “lasting time” value ([1]; s.c., dose of 0.125 mg/Kg) was 6 h.
“Iminoethyl-[Tyr]-[D-Met(O)]-[Phe]-[N-MeLys]-NHCH3 [SS8225-08]” was tested, and the “Oral ED50” value ([1]; p.o.) was >10 mg/kg, the “activity-peak time after the subcutaneous administration” value ([1]; s.c.) was 90 min and the “Subcutaneous ED50” value ([1]; s.c.) was 0.1 mg/kg. For the same molecule, the “lasting time” value ([1]; s.c., dose of 0.25 mg/Kg) was 5 h.
In the case of “Iminoethyl-[DMT]-[D-Met(O)]-[Phe]-[N-MeβAla]-NH2 [SS8225-03]”, the “Oral ED50” value ([1]; p.o.) was >10 mg/kg, the “activity-peak time after the subcutaneous administration” value ([1]; s.c.) was 90 min and the “Subcutaneous ED50” value ([1]; s.c.) was 0.08 mg/kg. For the same molecule, the “lasting time” value [1, 3] was 7 h.
In the case of “[DMT]-[D-Arg]-[Phe]-[N-MeLys]-NH2 [SS8225-09]”, the “Oral ED50” value ([1]; p.o.) was >10 mg/kg, the “Oral ED50” value ([1]; p.o., listed as Comparison Example 3) was “over 10 mg/Kg” and the “activity-peak time after the subcutaneous administration” value ([1]; s.c.) was 90 min. For the same molecule, the “Subcutaneous ED50” value ([1]; s.c.) was 0.44 mg/kg and the “lasting time” value ([1]; s.c., dose of 1 mg/Kg) was 5 h.
